Source: patent US20030082803A1, “Cell cycle control” (priority 1999, published 2003)

Experiments:
mES cells = test: Cell cycle arrest and cell cycle structure by flow cytometry of PI-stained mES cells; assay type: cell-based, murine; settings: up to concentrations of 140 μM
Description: Cdk2 activity levels determine the rate of mES cell division but not cell cycle structure. (A) mES cells were grown for up to 8 passages in the presence (+) or absence (−) of Ro09-3033 (2 μM). Cdk2, cyclin E and cyclin B-associated H1 kinase activities were assayed as described previously after immunoprecipitation from whole cell lysates (100 μg protein). Input loading control was determined by probing immunoblots (15 μg lysate protein) with α-Cdk2 and α-Oct4 polyclonal antibodies. Quantitation of H1 kinase activities are shown in the lower panel as the average of two independent experiments. (B) Northern blot analysis of Oct4, Rex-1 and GAPDH transcripts from mES cells grown with (+) or without (−) inhibitor (2 μM) for the number of passages indicated. RNA was resolved by agarose gel electrophoresis, blotted and hybridized with [^32P]-labelled Oct4, Rex-1 and GAPDH probes (15 μg total RNA per lane). […] (C) After 8 passages in the presence (+) or absence (−) of 2 μM Ro09-3033, mES and mEPL cells were fixed and stained with PI and analysed by flow cytometry. […] Generation times of mEPL cells were not determined in this experiment.
In preparation for flow cytometry, cells were resuspended in 300 μl of PBS supplemented with 1% FCS. […] Cells were stained by the addition of 2.5 mg/ml propidium iodide (Sigma) and 0.5 mg/ml RNAase A and analysed on a Beckman-Coulter flow cytometer with WinMDi software.

[1] = accumulation of cells at G1/S or G2/M, reference (31); cited from earlier work

CC[C@H](CO)Nc1nc(NCc2ccccc2)c2ncn(C(C)C)c2n1 [roscovitine]
Effect on cell division times or cell cycle structure in mES cells (mES cells): no effect
Concentration range in which it typically acts as a cell cycle specific inhibitor [1]: 20 to 30 µM
